Measurements reported in US9283277B2, “Methods and compositions for the treatment of obesity” (Children's Medical Center Corporation, priority 2008, dated 2016).

Key:
[1] = test system: LepRB signaling (LepRB, Jak2, Stat3); assay: Leptin receptor signaling in LepRB-expressing 293 cells under tunicamycin-induced ER stress; format: cell-based, Human; conditions: then leptin 100 ng/ml 45 minutes
Source text: The leptin receptor belongs to the interleukin 6 (IL-6) receptor family of class I cytokine receptors^30. […] Binding of leptin to LepRb initiates a conformational change that leads to trans-autophosphorylation and activation of LepRb-associated Jak2^31,32 Activated Jak2 then phosphorylates the tyrosine residues within the LepRb/Jak2 complex to mediate downstream signaling. […] To examine whether UPR might alter the leptin signaling, LepRB-expressing 293 cells were first exposed to tunicamycin (3 μg/ml) to activate ER stress for a period of 4 hours and then treated with leptin (100 ng/ml) for 45 minutes. […] Finally, as a downstream element, leptin-stimulated Stat3 activation was analyzed.

LepRB = LepRB membrane translocation (immunofluorescence) and leptin-binding assay in 293 cells; format: cell-based, Human
Method: Considering the fact that LepRB is folded in the ER, we investigated whether ER stress blocks leptin receptor translocation to the membrane from the ER and whether this could be a reason for the blockade of leptin signaling. We stimulated the 293 cells with tunicamycin for five hours (3 μg/ml) and analyzed leptin receptor levels in the plasma membrane by immunofluoresence staining. It was observed that LepRB folding is still preserved and its translocation to the membrane is not decreased in ER stress conditions. Next, we performed leptin-binding assays in DMSO and tunicamycin-treated cells to exclude the possibility of a defect in binding of leptin to LepRB.

[2] = test system: hypothalamus of lean mice; assay: Tunicamycin infusion to the third ventricle of lean mice; format: in vivo
Source text: Having shown that ER stress is increased in the hypothalamus of HFD-fed mice and causes leptin resistance in the cellular systems, we sought to investigate whether leptin action could also be blocked by directly inducing ER stress in brains of lean mice.
Next, we investigated the expression patterns of leptin resistance markers such as neuropeptide Y (NPY) and agouti related peptide (AgRP) in the vehicle- and tunicamycin-infused mice. […] In addition, to exclude the possibility that tunicamycin infusion leads to a decay in mRNA degradation of NPY and AgRP due to a possible toxic effect, we analyzed mRNA levels of IR and insulin receptor substrate 1 (IRS1).
To assess whether increased ER stress and activation of UPR signaling would create leptin resistance and block the leptin-stimulated Stat3 activation in the hypothalamus, leptin (1 mg/kg/day) was intraperitoneally administered 5½ hours after tunicamycin infusion. The experiment was ended by dissection of the hypothalami 30 minutes after leptin administration. […] In contrast, administration of tunicamycin to the third ventricle and creation of ER stress, in complete accordance with our data obtained from 293 cells, blocked activation of Stat3 in the hypothalamus (data not shown).

insulin receptor (IR) = assay: Insulin receptor activation in LepRB-expressing 293 cells after tunicamycin; format: cell-based, Human; conditions: tunicamycin 3 μg/ml five hours, insulin 100 nM five minutes
Method: To exclude the possibility that LepRB-expressing 293 cells become dysfunctional due to a possible toxicity generated by tunicamycin, we investigated the insulin receptor (IR) activation by stimulating the cells with insulin (100 nM) for five minutes after five-hour tunicamycin (3 μg/ml) treatment.

[3] = test system: LepRB signaling (LepRB, Jak2, Stat3); assay: Tunicamycin dose curve and time course in Ad-LacZ, Ad-XBP1s or Ad-ATF6n infected LepRb-expressing 293 cells; format: cell-based, Human
Source text: To determine whether exogenous expression of XBP1s and a consequent increase in ER folding capacity would enhance leptin receptor signaling, we generated an XBP1s-encoding adenovirus (Ad-XBP1s) and also a LacZ-expressing adenovirus (Ad-LacZ) as a control. Infection of mouse embryonic fibroblasts (MEFs) with Ad-XBP1s increased the protein level of XBP1s (data not shown). To test whether the expressed XBP1s was functional, we co-infected cells with Ad-XBP1s and a luciferase reporter gene-driven by an ERSE. […] ERDJ4 is a chaperone and involved in folding of ER proteins. […] After showing that Ad-XBP1s is functional and can increase ER folding capacity, we subsequently overexpressed the XBP1s in the LepRb-expressing 293 cells and performed two sets of experiments. In the first, we asked whether XBP1s overexpression could enhance the leptin-stimulated tyrosine phosphorylation of LepRb and increase the ability of the cells withstand to the ER stress-mediated blockade of LepRb activation. For this purpose we stimulated the 293 cells with increasing doses of tunicamycin (0.001, 0.01, 0.05, 0.1 and 1 μg/ml) for 5 hours and analyzed leptin-stimulated LepRb activation. In Ad-LacZ infected cells, LepRb activation was blocked at tunicamycin doses of 0.01 μg/ml and higher (data not shown). […]

[4] = tunicamycin 3 μg/ml (or DMSO) 4 hours

With tunicamycin the “leptin-stimulated Jak2 tyrosine phosphorylation” value ([1]; tunicamycin 3 μg/ml 4 hours) was “reduced to an undetectable level”, the “leptin-induced Stat3 phosphorylation (Tyr705)” value [1, 4] was “totally abolished” and the “leptin-stimulated LepRB tyrosine phosphorylation” value [1, 4] was “completely inhibited”. The “LepRB translocation to the plasma membrane” value (LepRB; 293 cells, tunicamycin 3 μg/ml five hours, immunofluorescence) was “not decreased”, the “leptin binding to LepRB” value (LepRB; tunicamycin-treated vs DMSO-treated cells) was “significantly increased” and the “Stat3 phosphorylation (activation) in the hypothalamus” value ([2]; leptin 1 mg/kg IP 5½ hours after third ventricle tunicamycin or vehicle infusion, 30 minutes after leptin) was “blocked”. For the same substance, the “POMC mRNA levels in hypothalamus” value ([2]; third ventricle infusion) was “did not show any significant difference”, the acute food intake ([2]; third ventricle infusion) was “significantly increased” and the “hypothalamic mRNA levels of IR and IRS1” value ([2]; third ventricle infusion) was “does not lead to a change”. The “mRNA levels of NPY and AgRP in hypothalamus” value ([2]; third ventricle infusion) was “significant increase”, the “mRNA levels of ER stress-responsive genes (XBP1s, CHOP, ERDJ4) in hypothalamus” value ([2]; third ventricle infusion, twelve hours after infusion) was “significantly upregulated” and the “insulin-stimulated IR tyrosine phosphorylation” value (insulin receptor (IR)) was “did not change”. The “time until leptin-stimulated LepRb, Jak2 activation and Stat3 tyrosine phosphorylation are blocked” value ([3]; Ad-LacZ infected 293 cells, tunicamycin 0.05 μg/ml) was no more than 2 h and the “CHOP mRNA expression” value ([3]; tunicamycin 0.01 and 0.05 μg/ml, five hours) was “upregulates”.
